Reference: ChEMBL document CHEMBL1909046, “DrugMatrix in vitro pharmacology data”
Where a SMILES comes first, the peptide text is derived from it. Bridges are numbered along the chain shown (N, C = ends). [ ]: non-standard residue; d: D form. The star is where a group is joined. Threoninol(2S,3R) = C[C@@H](O)[C@H](CO)N*

Legend:
[1] = DRUGMATRIX: Potassium Channel [KATP] radioligand binding (ligand: [3H] Glyburide); type: cell membranes, Membrane; details: hit-t15; Not Active = under 50% inhibition at 10 µM
[2] = target: Histamine H2 receptor (Homo sapiens, UniProt P25021); type: cell membranes, CHO-K1, Membrane; details: cho-k1; also: in other assays of this panel Not Active means under 50% inhibition at 10 µM
Histamine H2 receptor, sequence (P25021 whole entry): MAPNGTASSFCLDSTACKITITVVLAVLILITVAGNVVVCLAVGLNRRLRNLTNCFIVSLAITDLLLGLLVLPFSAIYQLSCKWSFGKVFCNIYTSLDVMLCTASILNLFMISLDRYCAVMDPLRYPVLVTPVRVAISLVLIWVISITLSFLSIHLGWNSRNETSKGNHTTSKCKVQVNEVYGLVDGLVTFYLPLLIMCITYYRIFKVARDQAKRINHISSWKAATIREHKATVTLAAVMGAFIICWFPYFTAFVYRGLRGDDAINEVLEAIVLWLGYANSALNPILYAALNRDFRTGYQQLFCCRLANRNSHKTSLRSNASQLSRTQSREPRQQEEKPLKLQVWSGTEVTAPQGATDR

[3] = DRUGMATRIX: Tumor Necrosis Factor (TNF), Non-Selective radioligand binding (ligand: [125I] TNF-alpha); type: cell membranes, Membrane; details: u-937; Not Active = under 50% inhibition at 10 µM
[4] = target: Melanocortin receptor 3 (Homo sapiens, UniProt P41968); type: cell membranes, Membrane; details: hek293; also: in other assays of this panel Not Active means under 50% inhibition at 10 µM
Melanocortin receptor 3, sequence (P41968 whole entry): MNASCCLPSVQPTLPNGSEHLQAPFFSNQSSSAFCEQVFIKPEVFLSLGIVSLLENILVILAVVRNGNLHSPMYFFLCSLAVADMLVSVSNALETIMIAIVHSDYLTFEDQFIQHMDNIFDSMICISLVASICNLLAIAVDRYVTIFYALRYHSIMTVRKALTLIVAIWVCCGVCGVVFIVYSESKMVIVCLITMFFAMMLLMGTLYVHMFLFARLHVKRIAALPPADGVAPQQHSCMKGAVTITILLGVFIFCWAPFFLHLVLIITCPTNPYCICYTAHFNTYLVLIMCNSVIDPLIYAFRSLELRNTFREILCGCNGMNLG

[5] = target: Melanocortin receptor 4 (Homo sapiens, UniProt P32245); type: cell membranes, Membrane; details: hek293; also: in other assays of this panel Not Active means under 50% inhibition at 10 µM
Melanocortin receptor 4, sequence (P32245 whole entry): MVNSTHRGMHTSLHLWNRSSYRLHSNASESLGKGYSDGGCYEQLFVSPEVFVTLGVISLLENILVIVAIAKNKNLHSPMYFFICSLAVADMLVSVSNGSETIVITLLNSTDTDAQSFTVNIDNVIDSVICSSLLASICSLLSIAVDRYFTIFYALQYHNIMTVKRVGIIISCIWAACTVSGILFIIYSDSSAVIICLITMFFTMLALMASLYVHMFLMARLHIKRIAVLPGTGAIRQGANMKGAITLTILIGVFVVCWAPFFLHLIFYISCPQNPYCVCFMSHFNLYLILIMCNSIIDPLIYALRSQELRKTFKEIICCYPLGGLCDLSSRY

[6] = target: T1, Alpha-1D adrenergic receptor (Homo sapiens, UniProt P25100); type: cell membranes, HEK293, Membrane; details: hek293; also: in other assays of this panel Not Active means under 50% inhibition at 10 µM
T1 sequence (P25100 whole entry): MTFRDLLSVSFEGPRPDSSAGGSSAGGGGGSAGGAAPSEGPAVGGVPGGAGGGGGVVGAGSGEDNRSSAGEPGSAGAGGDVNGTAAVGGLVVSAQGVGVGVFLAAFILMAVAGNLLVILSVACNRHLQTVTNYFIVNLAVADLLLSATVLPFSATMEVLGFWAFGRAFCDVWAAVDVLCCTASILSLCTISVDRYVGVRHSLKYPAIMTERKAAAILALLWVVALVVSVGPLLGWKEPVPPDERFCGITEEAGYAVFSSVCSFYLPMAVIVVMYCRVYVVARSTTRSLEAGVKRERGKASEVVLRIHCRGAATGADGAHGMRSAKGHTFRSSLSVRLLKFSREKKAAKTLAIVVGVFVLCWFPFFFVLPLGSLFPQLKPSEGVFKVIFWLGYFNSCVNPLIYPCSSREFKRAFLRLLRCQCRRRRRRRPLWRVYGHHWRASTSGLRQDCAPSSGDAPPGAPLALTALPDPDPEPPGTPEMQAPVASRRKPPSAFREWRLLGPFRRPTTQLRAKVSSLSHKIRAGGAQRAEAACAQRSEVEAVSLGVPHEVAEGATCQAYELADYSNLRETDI

[7] = target: T2, Endothelin-1 receptor (Homo sapiens, UniProt P25101); type: cell membranes, Membrane; details: cho-k1; also: in other assays of this panel Not Active means under 50% inhibition at 10 µM
T2 sequence (P25101 whole entry): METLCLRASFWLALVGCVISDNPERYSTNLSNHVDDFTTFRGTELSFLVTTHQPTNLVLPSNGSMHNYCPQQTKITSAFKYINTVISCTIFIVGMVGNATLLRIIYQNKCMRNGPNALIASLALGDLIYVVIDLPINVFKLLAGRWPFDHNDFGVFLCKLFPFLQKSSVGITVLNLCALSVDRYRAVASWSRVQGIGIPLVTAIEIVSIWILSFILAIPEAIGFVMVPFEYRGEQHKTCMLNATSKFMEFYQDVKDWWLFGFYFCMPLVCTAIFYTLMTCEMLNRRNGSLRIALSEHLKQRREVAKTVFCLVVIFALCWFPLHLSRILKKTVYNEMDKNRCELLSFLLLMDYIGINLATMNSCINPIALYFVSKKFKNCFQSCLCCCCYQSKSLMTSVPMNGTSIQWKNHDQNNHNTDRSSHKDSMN

COc1ccccc1C(=O)N1CCC(Cc2ccccc2)CC1
Not Active: IC50 [1] | Ki [1] | IC50 [2] | IC50 [3] | Ki [3] | IC50 [4] | IC50 [5] | IC50 [6] | IC50 [7]

Cc1ccccc1C(=O)N1CCC(Cc2ccccc2)CC1
Not Active: IC50 [1] | Ki [1] | IC50 [2] | IC50 [3] | Ki [3] | IC50 [4] | IC50 [5] | IC50 [6] | IC50 [7]

O=C1CC[C@H](N2C(=O)c3ccccc3C2=O)C(=O)N1
Not Active: IC50 [1] | Ki [1] | IC50 [2] | IC50 [3] | Ki [3] | IC50 [4] | IC50 [5] | IC50 [6] | IC50 [7]

N=C(Nc1ccccc1)Nc1ccccc1
Not Active: IC50 [1] | Ki [1] | IC50 [2] | IC50 [3] | Ki [3] | IC50 [4] | IC50 [5] | IC50 [6] | IC50 [7]

C[C@@H](O)[C@H](CO)NC(=O)[C@@H]1CSSC[C@H](NC(=O)[C@H](N)Cc2ccccc2)C(=O)N[C@@H](Cc2ccccc2)C(=O)N[C@H](Cc2c[nH]c3ccccc23)C(=O)N[C@@H](CCCCN)C(=O)N[C@@H]([C@@H](C)O)C(=O)N1 (H-[dF]CF[dW]KTC-{Threoninol(2S,3R)}; disulfide 2-7)
Not Active: IC50 [1] | Ki [1] | IC50 [2] | IC50 [3] | Ki [3] | IC50 [4] | IC50 [5] | IC50 [6] | IC50 [7]

S=C=Nc1cccc2ccccc12 [1-NAPHTHYLISOTHIOCYANATE]
Not Active: IC50 [1] | Ki [1] | IC50 [2] | IC50 [3] | Ki [3] | IC50 [4] | IC50 [5] | IC50 [6] | IC50 [7]

C[C@](O)(CS(=O)(=O)c1ccc(F)cc1)C(=O)Nc1ccc(C#N)c(C(F)(F)F)c1 [(R)-BICALUTAMIDE]
Not Active: IC50 [1] | Ki [1] | IC50 [2] | IC50 [3] | Ki [3] | IC50 [4] | IC50 [5] | IC50 [6] | IC50 [7]

CCCC(=O)Nc1ccc(OCC(O)CNC(C)C)c(C(C)=O)c1 (stereo not drawn) [ACEBUTOLOL]
Not Active: IC50 [1] | Ki [1] | IC50 [2] | IC50 [3] | Ki [3] | IC50 [4] | IC50 [5] | IC50 [6] | IC50 [7]

CC(=O)Nc1ccc(O)cc1 [ACETAMINOPHEN]
Not Active: IC50 [1] | Ki [1] | IC50 [2] | IC50 [3] | Ki [3] | IC50 [4] | IC50 [5] | IC50 [6] | IC50 [7]

COc1cc2c(c3oc(=O)c4c(c13)CCC4=O)[C@@H]1C=CO[C@@H]1O2 [AFLATOXIN]
Not Active: IC50 [1] | Ki [1] | IC50 [2] | Ki [2] | IC50 [3] | Ki [3] | IC50 [4] | Ki [4] | IC50 [5] | Ki [5] | IC50 [6] | Ki [6] | IC50 [7] | Ki [7]

N=C(N)NC(=O)c1nc(Cl)c(N)nc1N [AMILORIDE]
Not Active: IC50 [1] | Ki [1] | IC50 [2] | IC50 [3] | Ki [3] | IC50 [4] | IC50 [5] | IC50 [6] | IC50 [7]

Cc1cc(=O)n(-c2ccccc2)n1C [ANTIPYRINE]
Not Active: IC50 [1] | Ki [1] | IC50 [2] | IC50 [3] | Ki [3] | IC50 [4] | IC50 [5] | IC50 [6] | IC50 [7]

CN1C(=O)COc2c(C(=O)NC3CN4CCC3CC4)cc(Cl)cc21 (stereo not drawn) [AZASETRON]
Not Active: IC50 [1] | Ki [1] | IC50 [2] | IC50 [3] | Ki [3] | IC50 [4] | IC50 [5] | IC50 [6] | IC50 [7]

C[C@H]1C[C@H]2[C@@H]3CCC4=CC(=O)C=C[C@]4(C)[C@@]3(Cl)[C@@H](O)C[C@]2(C)[C@@]1(O)C(=O)CO [BECLOMETHASONE]
Not Active: IC50 [1] | Ki [1] | IC50 [2] | IC50 [3] | Ki [3] | IC50 [4] | IC50 [5] | IC50 [6] | IC50 [7]

CCOC(=O)[C@H](CCc1ccccc1)N[C@H]1CCc2ccccc2N(CC(=O)O)C1=O [BENAZEPRIL]
Not Active: IC50 [1] | Ki [1] | IC50 [2] | IC50 [3] | Ki [3] | IC50 [4] | IC50 [5] | IC50 [6] | IC50 [7]

Nc1c(CC(=O)O)cccc1C(=O)c1ccc(Br)cc1 [BROMFENAC]
Not Active: IC50 [1] | Ki [1] | IC50 [2] | IC50 [3] | Ki [3] | IC50 [4] | IC50 [5] | IC50 [6] | IC50 [7]

CCCCN1CCCCC1C(=O)Nc1c(C)cccc1C.Cl (stereo not drawn) [BUPIVACAINE HYDROCHLORIDE]
Not Active: IC50 [1] | Ki [1] | IC50 [2] | IC50 [3] | Ki [3] | IC50 [4] | IC50 [5] | IC50 [6] | IC50 [7]

O=C1CC2(CCCC2)CC(=O)N1CCCCN1CCN(c2ncccn2)CC1 [BUSPIRONE]
Not Active: IC50 [1] | Ki [1] | IC50 [2] | IC50 [3] | Ki [3] | IC50 [4] | IC50 [5] | IC50 [7]

C[C@@]12C(=O)OC(=O)[C@]1(C)[C@H]1CC[C@@H]2O1 [CANTHARIDIN]
Not Active: IC50 [1] | Ki [1] | IC50 [2] | IC50 [3] | Ki [3] | IC50 [4] | IC50 [5] | IC50 [6] | IC50 [7]

O=NN(CCCl)C(=O)NCCCl [CARMUSTINE]
Not Active: IC50 [1] | Ki [1] | IC50 [2] | IC50 [3] | Ki [3] | IC50 [4] | IC50 [5] | IC50 [6] | IC50 [7]

CC1=C(C(=O)O)N2C(=O)[C@@H](NC(=O)[C@H](N)c3ccccc3)[C@H]2SC1 [CEPHALEXIN ANHYDROUS]
Not Active: IC50 [1] | Ki [1] | IC50 [2] | IC50 [3] | Ki [3] | IC50 [4] | IC50 [5] | IC50 [6] | IC50 [7]

O=C(N[C@H](CO)[C@H](O)c1ccc([N+](=O)[O-])cc1)C(Cl)Cl [CHLORAMPHENICOL]
Not Active: IC50 [1] | Ki [1] | IC50 [2] | IC50 [3] | Ki [3] | IC50 [4] | IC50 [5] | IC50 [6] | IC50 [7]

ClC(Cl)Cl [CHLOROFORM]
Not Active: IC50 [1] | Ki [1] | IC50 [2] | IC50 [3] | Ki [3] | IC50 [4] | IC50 [5] | IC50 [6] | IC50 [7]

C=C1CC[C@H](O)C/C1=C/C=C1\CCC[C@]2(C)[C@@H]([C@H](C)CCCC(C)C)CC[C@@H]12 [CHOLECALCIFEROL]
Not Active: IC50 [1] | Ki [1] | IC50 [2] | IC50 [3] | Ki [3] | IC50 [4] | IC50 [5] | IC50 [6] | IC50 [7]

C[N+](C)(C)CCO.[Cl-] [CHOLINE CHLORIDE]
Not Active: IC50 [1] | Ki [1] | IC50 [2] | IC50 [3] | Ki [3] | IC50 [4] | IC50 [5] | IC50 [6] | IC50 [7]

CCOC(=O)C(C)(C)Oc1ccc(Cl)cc1 [CLOFIBRATE]
Not Active: IC50 [1] | Ki [1] | IC50 [2] | IC50 [3] | Ki [3] | IC50 [4] | IC50 [5] | IC50 [6] | IC50 [7]
